Experiments:
AXL = biological target: T1, AXL (Homo sapiens, UniProt P30530); assay: AXL autophosphorylation ELISA in A-172 cells; type: cell-based; conditions: Table 3 Cellular Activities, Gas6-stimulated, phospho-AXL ELISA
T1 construct: endogenous in cells; host or cells: A-172 glioblastoma cells (ATCC #CRL-1620)
T1 sequence (P30530 26-894): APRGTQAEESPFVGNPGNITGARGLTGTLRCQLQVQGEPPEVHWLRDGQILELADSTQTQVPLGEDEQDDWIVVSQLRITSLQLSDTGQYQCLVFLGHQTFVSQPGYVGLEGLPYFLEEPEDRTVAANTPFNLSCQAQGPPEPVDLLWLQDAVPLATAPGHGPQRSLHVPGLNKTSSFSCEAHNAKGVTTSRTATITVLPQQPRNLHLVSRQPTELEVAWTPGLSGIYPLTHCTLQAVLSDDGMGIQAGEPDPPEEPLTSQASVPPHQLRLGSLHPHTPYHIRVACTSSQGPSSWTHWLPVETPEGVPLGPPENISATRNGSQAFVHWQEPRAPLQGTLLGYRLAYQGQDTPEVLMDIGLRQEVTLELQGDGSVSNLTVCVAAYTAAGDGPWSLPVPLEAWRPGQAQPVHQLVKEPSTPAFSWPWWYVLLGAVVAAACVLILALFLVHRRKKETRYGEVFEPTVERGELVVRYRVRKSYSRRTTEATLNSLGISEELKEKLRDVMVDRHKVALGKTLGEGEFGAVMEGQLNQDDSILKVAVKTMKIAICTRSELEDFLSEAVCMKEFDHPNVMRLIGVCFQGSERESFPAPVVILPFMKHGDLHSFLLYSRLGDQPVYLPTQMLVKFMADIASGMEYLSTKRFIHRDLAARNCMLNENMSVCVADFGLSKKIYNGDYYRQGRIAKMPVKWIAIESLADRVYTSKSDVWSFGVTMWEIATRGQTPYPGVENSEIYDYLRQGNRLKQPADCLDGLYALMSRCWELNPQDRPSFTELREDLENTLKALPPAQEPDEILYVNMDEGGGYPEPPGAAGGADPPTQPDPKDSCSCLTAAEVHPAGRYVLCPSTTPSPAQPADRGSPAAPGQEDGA
In short: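 A-172 glioblastoma cells serum-starved 24 h, treated 1 h with compounds (8-point dose curve, 0.3% DMSO), then stimulated with 1 μg/mL Gas6 for 15 min. Lysate phospho-AXL quantified by ELISA against a standard; IC50 from 4-parameter logistic fit, normalised to DMSO and reference-inhibitor controls.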

Met = Met (Homo sapiens, UniProt P08581); assay: Met autophosphorylation ELISA in PC-3 cells; type: cell-based; parameters: endogenous in cells; host or cells: PC-3 prostate cancer cells (ATCC #CRL-1435); conditions: Table 3 Cellular Activities, HGF-stimulated, phospho-Met ELISA, read-out: c-Met IC50
In short: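 Serum-starved (3 h) PC-3 cells pre-incubated 1 h with compound (8-point dose curve, 0.3% DMSO), then stimulated with 100 ng/mL recombinant human HGF for 10 min. Lysate phospho-Met (panTyr) measured by sandwich ELISA; IC50 from 4-parameter logistic fit, normalised to DMSO (100%) and reference-inhibitor (0%) controls.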

Sequence of Met (P08581 25-1390): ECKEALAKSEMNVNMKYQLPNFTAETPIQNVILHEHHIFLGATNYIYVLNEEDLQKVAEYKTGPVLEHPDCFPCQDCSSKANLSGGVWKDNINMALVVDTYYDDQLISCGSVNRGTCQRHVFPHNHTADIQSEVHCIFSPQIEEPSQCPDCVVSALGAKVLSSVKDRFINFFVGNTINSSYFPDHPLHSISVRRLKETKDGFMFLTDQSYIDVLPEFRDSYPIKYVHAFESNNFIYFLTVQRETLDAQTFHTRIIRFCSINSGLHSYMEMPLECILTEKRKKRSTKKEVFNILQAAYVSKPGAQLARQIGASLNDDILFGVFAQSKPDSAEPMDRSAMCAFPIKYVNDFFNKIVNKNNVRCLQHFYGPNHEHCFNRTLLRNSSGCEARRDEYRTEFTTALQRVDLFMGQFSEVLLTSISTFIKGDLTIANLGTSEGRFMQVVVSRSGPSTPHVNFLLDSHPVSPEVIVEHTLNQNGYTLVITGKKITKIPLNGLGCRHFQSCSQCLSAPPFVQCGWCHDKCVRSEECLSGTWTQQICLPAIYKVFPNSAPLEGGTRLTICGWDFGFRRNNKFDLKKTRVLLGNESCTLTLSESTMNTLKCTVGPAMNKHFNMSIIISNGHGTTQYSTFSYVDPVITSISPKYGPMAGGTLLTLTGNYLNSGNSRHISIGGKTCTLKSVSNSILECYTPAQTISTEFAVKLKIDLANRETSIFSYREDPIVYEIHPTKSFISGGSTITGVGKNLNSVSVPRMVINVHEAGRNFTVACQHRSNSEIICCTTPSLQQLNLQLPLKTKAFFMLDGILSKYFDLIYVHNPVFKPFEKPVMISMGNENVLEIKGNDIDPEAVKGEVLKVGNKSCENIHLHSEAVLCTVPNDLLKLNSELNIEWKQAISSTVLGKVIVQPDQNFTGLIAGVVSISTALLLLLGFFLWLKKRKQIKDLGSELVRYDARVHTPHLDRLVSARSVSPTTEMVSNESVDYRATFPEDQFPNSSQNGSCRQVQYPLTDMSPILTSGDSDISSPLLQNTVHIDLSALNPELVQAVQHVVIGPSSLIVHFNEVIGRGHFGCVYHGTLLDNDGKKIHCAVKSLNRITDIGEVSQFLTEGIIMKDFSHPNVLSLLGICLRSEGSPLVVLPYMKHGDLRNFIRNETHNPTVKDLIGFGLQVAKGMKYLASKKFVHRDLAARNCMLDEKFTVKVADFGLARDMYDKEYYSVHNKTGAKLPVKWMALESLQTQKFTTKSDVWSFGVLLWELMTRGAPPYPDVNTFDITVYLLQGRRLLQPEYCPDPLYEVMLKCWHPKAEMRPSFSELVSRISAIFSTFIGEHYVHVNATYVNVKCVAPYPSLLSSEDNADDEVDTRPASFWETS

Row | Compound | IC50 (AXL) [nM] | IC50 (Met) [nM]
1 | COc1cnc2c(Oc3ccc(NC(=O)c4ccc(C)n(-c5ccc(F)cn5)c4=O)cc3F)ccnc2c1 [Compound 45, N-[3-Fluoro-4-[(7-methoxy-1,5-naphthyridin-4-yl)oxy]phenyl]-1-(5-fluoropyridin-2-yl)-6-methyl-2-oxopyridine-3-carboxamide] | ≤ 100 | ≤ 100
2 | COc1cc2nccc(Oc3ccc(NC(=O)c4c5n(cc(-c6cccs6)c4=O)CCOC5)cc3F)c2nc1OC [Compound 309, N-[4-[(6,7-Dimethoxy-1,5-naphthyridin-4-yl)oxy]-3-fluorophenyl]-8-oxo-7-thiophen-2-yl-3,4-dihydro-1H-pyrido[2,1-c][1,4]oxazine-9-carboxamide] | ≤ 100 | ≤ 100
3 | COc1cc2nccc(Oc3ccc(NC(=O)c4cn(CCF)c(C)c(-c5cccs5)c4=O)cc3F)c2nc1OC [Compound 327, N-[4-[(6,7-Dimethoxy-1,5-naphthyridin-4-yl)oxy]-3-fluorophenyl]-1-(2-fluoroethyl)-6-methyl-4-oxo-5-thiophen-2-ylpyridine-3-carboxamide] | ≤ 100 | ≤ 100
4 | COc1cc2nccc(Oc3ccc(NC(=O)c4cc(C(C)=O)c(C)n(-c5ccco5)c4=O)cc3F)c2nc1OC [Compound 236, 5-Acetyl-N-[4-[(6,7-dimethoxy-1,5-naphthyridin-4-yl)oxy]-3-fluorophenyl]-1-(furan-2-yl)-6-methyl-2-oxopyridine-3-carboxamide] | ≤ 100 | 300 to 1000
5 | COc1ccc2nccc(Oc3ccc(NC(=O)c4ccc(C)n(-c5ncc(F)cc5C)c4=O)cc3F)c2n1 [Compound 53, N-[3-Fluoro-4-[(6-methoxy-1,5-naphthyridin-4-yl)oxy]phenyl]-1-(5-fluoro-3-methylpyridin-2-yl)-6-methyl-2-oxopyridine-3-carboxamide] | ≤ 100 | ≤ 100
6 | COc1cnc2c(Oc3ccc(NC(=O)c4c(C)n(C)cc(-c5ccc(F)cn5)c4=O)cc3F)ccnc2c1 [Compound 73, N-[3-Fluoro-4-[(7-methoxy-1,5-naphthyridin-4-yl)oxy]phenyl]-5-(5-fluoropyridin-2-yl)-1,2-dimethyl-4-oxopyridine-3-carboxamide] | ≤ 100 | ≤ 100
7 | COc1cc2nccc(Oc3ccc(NC(=O)c4c5n(cc(-c6ccc(C)s6)c4=O)CCOC5)cc3)c2nc1OC [Compound 305, N-[4-[(6,7-Dimethoxy-1,5-naphthyridin-4-yl)oxy]phenyl]-7-(5-methylthiophen-2-yl)-8-oxo-3,4-dihydro-1H-pyrido[2,1-c][1,4]oxazine-9-carboxamide] | ≤ 100 | ≤ 100
8 | COc1cc2nccc(Oc3ccc(NC(=O)c4ccc(C)n(-c5ccc(F)cn5)c4=O)cc3)c2nc1OC [Compound 44, N-[4-[(6,7-Dimethoxy-1,5-naphthyridin-4-yl)oxy]phenyl]-1-(5-fluoropyridin-2-yl)-6-methyl-2-oxopyridine-3-carboxamide] | ≤ 100 | ≤ 100
9 | CCOc1ccn(-c2ccc(F)cn2)c(=O)c1C(=O)Nc1ccc(Oc2ccnc3cc(OC)c(OC)nc23)cc1 [Compound 244, N-[4-[(6,7-Dimethoxy-1,5-naphthyridin-4-yl)oxy]phenyl]-4-ethoxy-1-(5-fluoropyridin-2-yl)-2-oxopyridine-3-carboxamide] | ≤ 100 | ≤ 100

Reference: patent US20230151003A1, “COMPOUNDS AND METHODS OF USE” (Exelixis, Inc., priority 2020, published 2023)
